PMC9688225, “α-Lipoic Acid Derivatives as Allosteric Modulators for Targeting AMPA-Type Glutamate Receptors’ Gating Modules” (Cells, 2022)
Where two headings read alike, the source gives them in different places.

Key:
[1] = molecular target: T1, GluA1/2 AMPA receptor subunits (flip isoform) (Homo sapiens, UniProt P42261+P42262); assay: Whole-cell patch-clamp electrophysiology, heteromeric GluA1/2 expressed in HEK293 cells; format: cell-based; conditions: for IC50: Hill fit
T1 construct: expressed in transfected cells; host or cells: HEK293
T1 sequence (P42261 19-906 isoform P42261-2 limits assumed): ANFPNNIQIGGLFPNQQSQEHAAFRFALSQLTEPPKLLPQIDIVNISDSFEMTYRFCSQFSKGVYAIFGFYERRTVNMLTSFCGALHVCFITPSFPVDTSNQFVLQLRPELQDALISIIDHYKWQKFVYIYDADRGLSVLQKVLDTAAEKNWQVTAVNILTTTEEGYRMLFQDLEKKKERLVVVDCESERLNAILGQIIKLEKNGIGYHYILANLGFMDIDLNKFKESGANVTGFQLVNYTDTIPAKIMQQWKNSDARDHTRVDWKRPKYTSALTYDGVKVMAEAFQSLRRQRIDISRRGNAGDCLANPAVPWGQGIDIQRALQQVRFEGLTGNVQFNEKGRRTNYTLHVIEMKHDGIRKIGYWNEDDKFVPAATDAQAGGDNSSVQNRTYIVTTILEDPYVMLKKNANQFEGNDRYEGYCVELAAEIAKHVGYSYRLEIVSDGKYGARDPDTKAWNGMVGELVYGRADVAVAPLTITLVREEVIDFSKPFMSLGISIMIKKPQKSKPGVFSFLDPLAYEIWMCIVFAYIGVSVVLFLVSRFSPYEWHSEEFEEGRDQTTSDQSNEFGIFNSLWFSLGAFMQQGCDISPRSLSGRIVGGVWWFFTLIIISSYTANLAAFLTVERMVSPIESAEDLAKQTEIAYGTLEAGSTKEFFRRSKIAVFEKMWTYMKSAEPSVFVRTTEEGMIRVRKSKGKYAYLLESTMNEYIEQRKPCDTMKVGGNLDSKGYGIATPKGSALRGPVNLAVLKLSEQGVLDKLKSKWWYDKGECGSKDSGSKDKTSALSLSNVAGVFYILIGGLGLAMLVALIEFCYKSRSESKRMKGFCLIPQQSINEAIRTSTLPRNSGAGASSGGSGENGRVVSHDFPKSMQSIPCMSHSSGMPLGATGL
T1 sequence (P42262 25-883 isoform P42262-2 limits assumed): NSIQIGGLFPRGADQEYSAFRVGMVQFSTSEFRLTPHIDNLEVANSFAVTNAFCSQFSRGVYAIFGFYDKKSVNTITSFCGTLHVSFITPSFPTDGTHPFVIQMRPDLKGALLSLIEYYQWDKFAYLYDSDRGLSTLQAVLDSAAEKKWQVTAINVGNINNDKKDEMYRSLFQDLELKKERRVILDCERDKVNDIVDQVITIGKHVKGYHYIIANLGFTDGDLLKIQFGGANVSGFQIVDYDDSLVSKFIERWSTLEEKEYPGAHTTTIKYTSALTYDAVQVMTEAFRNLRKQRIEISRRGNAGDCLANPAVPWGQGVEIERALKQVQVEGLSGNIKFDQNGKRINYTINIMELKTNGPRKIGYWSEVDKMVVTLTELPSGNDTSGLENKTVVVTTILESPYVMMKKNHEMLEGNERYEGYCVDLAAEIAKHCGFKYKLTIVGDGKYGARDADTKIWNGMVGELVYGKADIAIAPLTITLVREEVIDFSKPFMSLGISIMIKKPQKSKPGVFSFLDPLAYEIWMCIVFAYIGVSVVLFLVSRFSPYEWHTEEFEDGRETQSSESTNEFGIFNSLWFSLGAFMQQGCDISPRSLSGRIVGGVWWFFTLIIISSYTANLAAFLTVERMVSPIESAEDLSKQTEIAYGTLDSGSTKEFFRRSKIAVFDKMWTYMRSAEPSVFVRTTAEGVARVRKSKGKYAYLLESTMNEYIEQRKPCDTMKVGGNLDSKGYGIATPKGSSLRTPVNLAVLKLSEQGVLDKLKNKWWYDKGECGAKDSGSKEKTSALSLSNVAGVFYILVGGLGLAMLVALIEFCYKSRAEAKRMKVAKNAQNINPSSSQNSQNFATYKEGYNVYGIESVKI
Protocol: (§1) Up to 20 μg of high-copy plasmid DNA was prepared using the QIAGEN Plasmid Mini Kit, the tubes were then centrifuged to extract the supernatant containing the plasmid DNA, ethanol was used to wash the DNA pellet, then centrifuged again and the supernatant was carefully removed as to not disturb the pellet, finally, the pellet was air-dried, and the DNA was re-dissolved in a suitable volume of buffer, (our prior study detailed the whole DNA preparation data). The flip isoform was used in all AMPAR subunits used in this investigation. AMPAR subunits were subcloned in pRK and expressed in the human embryonic kidney cells (HEK293) (The HEK293 cell line was obtained from Sigma, Schnelldorf, Germany). IPA (Integrated Patch Amplifier) recorded HEK293 cells 36–48 h after transfection using the patch-clamp method (Sutter Instruments, Novato, CA, USA). A high-speed piezo solution switcher was installed on a double-barreled glass (theta tube) to provide solutions fast, isolate receptor responses from any network influences, and preserve, as much as possible, the postsynaptic protein machinery. Thus, inhibition was measured by comparing the current recorded when glutamate alone was administered to the current observed when glutamate plus the compound of interest was delivered to the same cell. Before administering the α-LA compounds, experiments were conducted to determine the appropriate concentration to be delivered to the cells without harming them. Dichloromethane (12 µM) effect on GluA1 and GluA2 subunits was tested to ensure that it had no effect on AMPA receptor currents (Figure S8). The effect of α-LA compounds on AMPA subunits plateaued at a concentration of 12 µM because LA inhibits AMPA receptors at low concentrations and continues to inhibit them when LA concentrations are increased by 2 µM each interval, as shown in Figure S1. The concentration increased by 2 µM each time to ensure that no cells were harmed. The cells were washed for 20 s between α-LA derivatives (12 µM), and 10 mM glutamate was supplied alone after each α-LA compound to ensure cell health. Data analysis was carried out using Igor Pro7 (Wave Metrics, inc). For both desensitization (τw des) and deactivation rates (τw deact), an exponential fit to the current decline was obtained at 95% of peak to baseline current. The weighted tau (τw) was calculated as τw = (τf × af) + (τs × as), where af and as are the amplitudes of the fast (τf) and slow (τs) exponential components, respectively. Our study detailed the experimental data set.
(§2) Data are presented as mean ± standard error of the mean (SEM). The number of samples (n = 10) refers to the total number of tested HEK293 cells. Statistical differences between the groups and the wild type were examined by One Way Analysis of Variance (ANOVA), with values of p < 0.05 being considered to indicate statistical significance: (*) p < 0.05, (**) p < 0.01, (***) p < 0.001, ns, not significant. Concentration-response relationships were fitted as composite curves using GraphPad Prism version 6.01 (GraphPad Software, San Diego, CA, USA) to the Hill equation. All results were representative of at least three independent experiments.
(§3) Figure 2 Suppression of AMPA receptor currents by α-LA compounds. Graphs (a,c,e,g) present AMPA receptor currents (pA) before and after the administration of α-LA derivatives on GluA1, GluA1/2, GluA2, and GluA2/3 subunits. While (b,d,f,h) present the ratio A/AI, where A represents the current caused by 10 mM glutamate alone and AI represents the current induced by glutamate + α-LA (12 µM). The whole-cell current was measured at −60 mV, pH 7.4, and 22 °C. A one way analysis of variance (ANOVA) was performed for comparison: *** p < 0.001; ns, not significant. Ten cells were investigated for each LA compound. All values are shown as mean SEM.
(§4) Figure 3 The potency of LA compounds against AMPA receptor subunits. […]

[2] = tested on: HEK293 cells; parameters: method as in PMID 23780308; conditions: 8 µM α-lipoic acid; cited from earlier work
[3] = tested on: AMPA receptor subunits (GluA1, GluA2, GluA1/2, GluA2/3); assay: Whole-cell patch-clamp electrophysiology, summary over the AMPA receptor subunits in HEK293 cells; format: cell-based
Protocol: as §1, §2
The levels of inhibition of α-LA and its derivatives attracted our attention to assessing the potency of the compounds in a concentration-dependent manner. […] The concentration−inhibition curves were produced by administering glutamate alone at a concentration of 10 mM, followed by glutamate + α-LA derivatives at varying concentrations (in μM) for every recording point. Afterward, the cells were normalized back by administering glutamate alone. Since the glutamate concentration in the synaptic cleft constantly saturates the receptors, driving the response to a near maximum level, variability occurs because the maximum level changes. […]

[4] = tested on: EA.hy926 endothelial cells; parameters: method as in PMID 18026819; conditions: 40–80 µM α-lipoic acid; cited from earlier work
[5] = molecular target: T2, GluA1 AMPA receptor subunit (flip isoform) (Homo sapiens, UniProt P42261); assay: Whole-cell patch-clamp electrophysiology, homomeric GluA1 expressed in HEK293 cells; format: cell-based; conditions: for IC50: Hill fit
T2 construct: expressed in transfected cells; host or cells: HEK293
T2 sequence (P42261 19-906 isoform P42261-2 limits assumed): as the sequence (P42261 19-906 isoform P42261-2 limits assumed) above
Protocol: as §1, §2, §3, §4

[6] = molecular target: T3, GluA2/3 AMPA receptor subunits (flip isoform) (Homo sapiens, UniProt P42262+P42263); assay: Whole-cell patch-clamp electrophysiology, heteromeric GluA2/3 expressed in HEK293 cells; format: cell-based; conditions: for IC50: Hill fit
T3 construct: expressed in transfected cells; host or cells: HEK293
T3 sequence (P42262 25-883 isoform P42262-2 limits assumed): as the sequence (P42262 25-883 isoform P42262-2 limits assumed) above
T3 sequence (P42263 29-894 isoform P42263-2 limits assumed): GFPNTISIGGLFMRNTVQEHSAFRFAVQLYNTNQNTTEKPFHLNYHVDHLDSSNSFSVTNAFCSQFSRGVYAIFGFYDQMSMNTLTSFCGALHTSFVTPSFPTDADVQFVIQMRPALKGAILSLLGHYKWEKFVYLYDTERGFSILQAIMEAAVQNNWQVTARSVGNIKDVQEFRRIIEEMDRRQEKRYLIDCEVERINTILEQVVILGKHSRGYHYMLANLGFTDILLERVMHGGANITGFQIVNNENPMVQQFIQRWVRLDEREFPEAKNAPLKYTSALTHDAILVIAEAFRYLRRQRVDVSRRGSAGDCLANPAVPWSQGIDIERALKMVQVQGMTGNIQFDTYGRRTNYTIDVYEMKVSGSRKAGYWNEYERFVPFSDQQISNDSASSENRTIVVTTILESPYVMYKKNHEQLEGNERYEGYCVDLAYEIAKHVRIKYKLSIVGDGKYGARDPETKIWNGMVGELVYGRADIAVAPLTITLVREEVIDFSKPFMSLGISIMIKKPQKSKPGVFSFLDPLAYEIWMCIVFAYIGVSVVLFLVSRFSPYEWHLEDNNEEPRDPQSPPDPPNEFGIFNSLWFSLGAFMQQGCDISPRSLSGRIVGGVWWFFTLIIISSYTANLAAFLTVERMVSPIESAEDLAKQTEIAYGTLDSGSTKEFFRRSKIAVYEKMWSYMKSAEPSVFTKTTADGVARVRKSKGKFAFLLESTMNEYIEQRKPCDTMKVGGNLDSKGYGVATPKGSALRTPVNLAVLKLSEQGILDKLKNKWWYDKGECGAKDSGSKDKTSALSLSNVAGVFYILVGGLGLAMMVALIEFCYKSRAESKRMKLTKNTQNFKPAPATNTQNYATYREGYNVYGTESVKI
Protocol: as §1, §2, §3, §4

[7] = molecular target: T4, GluA2 AMPA receptor subunit (flip isoform) (Homo sapiens, UniProt P42262); assay: Whole-cell patch-clamp electrophysiology, homomeric GluA2 expressed in HEK293 cells; format: cell-based; conditions: for IC50: Hill fit
T4 construct: expressed in transfected cells; host or cells: HEK293
T4 sequence (P42262 25-883 isoform P42262-2 limits assumed): as the sequence (P42262 25-883 isoform P42262-2 limits assumed) above
Protocol: as §1, §2, §3, §4

[8] = 10 mM glutamate + 12 µM compound, −60 mV, pH 7.4, 22 °C, mean ± SEM, n = 10
[9] = 10 mM glutamate, 12 µM compound, n = 10
[10] = whole-cell normalized peak amplitude, unit printed in the text, not in Table S6, read-out: IC50
[11] = all AMPA receptor subunits, 12 µM compound

- Amplitude (glutamate + compound) [1, 8]: 69±10.0 pA
- A/AI (current with glutamate alone / current with glutamate + compound) [1, 9]: 9.13±0.9
- IC50 ([1]; read-out: Log IC50 (converted)): 3.89 µM
- t deact (weighted deactivation time constant) ([1]; glutamate + 12 µM compound, glutamate alone 2.5±0.3 ms): 8.9 ± 0.5 ms
- IC50 [1, 10]: 3.86 µM
- IC50 ([3]; over GluA1, GluA1/2, GluA2, GluA2/3, read-out: approximate IC50 against AMPA receptor subunits): 3.5 to 4 µM
- Amplitude (glutamate + compound) [5, 8]: 102±14.0 pA
- A/AI (current with glutamate alone / current with glutamate + compound) [5, 9]: 9.26±0.6
- IC50 ([5]; read-out: Log IC50 (converted)): 3.55 µM
- t deact (weighted deactivation time constant) ([5]; glutamate + 12 µM compound, glutamate alone 2.2±0.1 ms): 9.1 ± 0.6 ms
- IC50 [5, 10]: 3.54 µM
- Amplitude (glutamate + compound) [6, 8]: 60±11.0 pA
- A/AI (current with glutamate alone / current with glutamate + compound) [6, 9]: 8.93±1.0
- IC50 ([6]; read-out: Log IC50 (converted)): 3.98 µM
- t deact (weighted deactivation time constant) ([6]; glutamate + 12 µM compound, glutamate alone 2.4±0.3 ms): 8.6 ± 0.7 ms
- IC50 [6, 10]: 4.01 µM
- Amplitude (glutamate + compound) [7, 8]: 136±22 pA
- A/AI (current with glutamate alone / current with glutamate + compound) [7, 9]: 9.09±0.8
- IC50 ([7]; read-out: Log IC50 (converted)): 3.89 µM
- t deact (weighted deactivation time constant) ([7]; glutamate + 12 µM compound, glutamate alone 2.4±0.1 ms): 8.8 ± 0.5 ms
- IC50 [7, 10]: 3.93 µM
SMILES: O=C(O)CCCCC1CCSS1 (stereo not drawn) [α-LA, alpha-Lipoic acid, reference compound]
- t des (weighted desensitization time constant) ([1]; glutamate + 12 µM compound, glutamate alone 5.3±0.4 ms): 3.3 ± 0.3 ms
- harm to the cells [2]: without noticing any harm
- increase of the rate of AMPA receptor deactivation (τw deact) [3, 11]: about 4 fold
- reduction in the rate of desensitization (τw des) [3, 11]: 2 fold
- increase of the ratio A/AI ([3]; all AMPA receptor subunits, glutamate alone vs glutamate + compound): 9 fold
- toxicity to the cells [4]: without causing toxicity
- t des (weighted desensitization time constant) ([5]; glutamate + 12 µM compound, glutamate alone 2.3±0.1 ms): 1.3 ± 0.1 ms
- t des (weighted desensitization time constant) ([6]; glutamate + 12 µM compound, glutamate alone 2.7±0.3 ms): 1.6 ± 0.09 ms
- t des (weighted desensitization time constant) ([7]; glutamate + 12 µM compound, glutamate alone 2.6±0.1 ms): 1.5 ± 0.04 ms
